Results published in US9844599B2, “Nitric oxide releasing produgs of therapeutic agents” (priority 2013, dated 2017).

What was measured:
[1] = Stability of prodrugs / release of parent drug in Simulated Gastric Fluid (SGF); type: in vitro ADME; settings: for % of Prodrug remaining (μM): simulated gi fluid
Protocol: SGF was prepared according to the procedure described in Test Solution—USP. Thus, 0.2 g of sodium chloride and 0.32 g of purified pepsin (Sigma, derived from porcine stomach mucosa with an activity of 800 to 2500 units per mg of protein) were dissolved in 0.7 mL of hydrochloric acid and sufficient water to make 100 mL. This test solution has a pH of about 1.2 and was utilized for in-vitro studies.
(§1) The solution of the test compound in acetonitrile (10 μL of […] solution) was dissolved in 990 μL of biological fluid (SGF/SIF/Human Plasma). The resulting reaction mixtures were incubated at 37° C. At specified time intervals, aliquots (60 μL) were withdrawn and added to acetonitrile (200 μL) and mixed well by vortexing for 2 minutes. The mixture was centrifuged at 13000 rpm for 15 min at 4° C., and the supernatant analyzed by HPLC. The amounts (area percentages) of the remaining intact prodrug (if any) and the released metabolite(s) were estimated by HPLC.
(§2) This was performed by using HPLC instrument (Waters alliance), pump 2695, and PDA detector 2996 with the following chromatographic parameters: Wavelength −210 nm; Column-Waters X-Terra RP-18, 150×3.9 mm, 5 μm; Injection volume, 25 μL; Run time, 13 min. Mode of operation was linear gradient with mobile phase A: Acetonitrile and B: 0.1% TFA in water (filtered and degassed). Flow rate was 1.0 mL/min at 25° C.

[2] = Stability / release of aspirin in Simulated Intestinal Fluid (SIF); type: in vitro ADME; settings: 1 mM concentration
Protocol: SIF was prepared according to the procedure described in Test Solution—USP. Thus, 0.68 g of monobasic potassium phosphate was dissolved in 25 mL of water followed by addition of 0.2N NaOH (7.7 mL) and water (50 mL). To this solution was added pancreatin (1 g) and mixed; the pH of the resulting solution was adjusted to about 6.8 with 0.2N HCl/0.2N NaOH and the solution, was diluted with water to 100 mL. The solution was utilized for in-vitro studies.
as §1
as §2, with “Flow rate was 1.0 mL/min at 25° C.” left out

[3] = Stability / release of aspirin and salicylic acid in human plasma; type: in vitro ADME; settings: 100 μM, FIG. 11
Protocol: Human plasma was similarly obtained by processing the blood taken from healthy human male volunteers (age group 25-35 years) who had not consumed any NSAIDS one week prior to the collection of blood. This plasma was utilized for the in-vitro experiments.
as §1, §2

[4] = system: serum thromboxane B2 (TXB2) formation; test: Inhibition of serum thromboxane B2 (TXB2) formation; type: in vivo, Sprague-Dawley (SD) rats; settings: SD rats, 30 mg/kg aspirin or equimolar 44.82 mg/kg, p.o., o.d., 7 days
Protocol: Aspirin is used as an antiplatelet agent for the treatment of cardiovascular complications. […] It is therefore possible to achieve complete suppression of platelet. TXA2 (and also TXB2) formation via chronic administration of aspirin at a dose of 30 mg/daily (Patrignani, P., et al. J. Clin. Invest. 1982, 69, 1366-1372). The antiplatelet activity of aspirin (30 mg/kg) and its prodrug I-D1-R1 (at a dose equimolar to 30 mg/kg dose of aspirin) was evaluated in Sprague-Dawley (SD) rats through estimation of serum TXB2 levels (Esser, R. et al., Br. J. Pharmacol. 2006, 144, 538-550) and the experimental results are presented in FIG. 7.
In vivo TXB2 inhibition potential of aspirin and NO-aspirin prodrugs was assessed in Sprague-Dawley (SD) rats; the serum TXB2 levels were estimated according to the reported procedure (R. Esser, R., et al., Br. J. Pharmacol. 2006, 144, 538-550). Thus, vehicle, aspirin (30 mg/kg) or aspirin prodrug I-D1-R1 (44.82 mg/kg which is equivalent to 30 mg/kg dose of aspirin) were administered orally to the overnight fasted SD rats. […] The serum TXB2 concentrations were determined by enzyme immunoassay (EIA) using commercially available TXB2 estimation kit (Cayman Chemicals, USA), according to the method described in kit information booklet.

[5] = Stability of prodrugs at RT and at 50° C. (capped vials); type: physicochemical
[6] = Acute gastric ulcerogenesis activity study; settings: rats, acute oral; aspirin 100 mg/kg, I-D1-R1 298.85 mg/kg, naproxen 100 mg/kg, I-D2-R1 138.67 mg/kg
Protocol: The animals were sacrificed after 5 h of drug administration. The stomachs of the treated animals were separated, perfused with 2% formalin (10 mL), and a large curvature was excised. The severity of the mucosal damage was assessed on the basis of the size of the observed ulcer lesions in the images captured using a stereomicroscope attached to a digital camera (Stemi 2000, Zeiss, Germany). The Image Pro Plus software (version 5.1) was used to quantify the hemorrhagic/ulcer lesions in pixels and to convert them into mm^2. The total area of lesions was calculated for each treatment group and the measure of gastric ulcers (Mean±SEM) (mm^2) was estimated (FIGS. 5 and 6).

CC(=O)Oc1ccccc1C(=O)OC(C)O[N+](=O)[O-] (stereo not drawn) [I-D1-R1, 1-(nitrooxy)ethyl 2-acetoxybenzoate]
Release of parent drug on incubation in SGF (in words) [1]: released quantitative amounts of the parent drug aspirin
% of Aspirin Released (μM) ([1]; 0 min, 1 µM, pH 1.2): 0%
AUC of aspirin (released / remaining) in SGF ([1]; 1 µM, pH 1.2): 10406 µM·h
Aspirin released in SGF, less than that of aspirin ([1]; 1 µM, pH 1.2): about 15%
% of Aspirin Released (μM) ([1]; 5 min, 1 µM, pH 1.2): 18%
% of Aspirin Released (μM) ([1]; 10 min, 1 µM, pH 1.2): 44%
% of Aspirin Released (μM) ([1]; 30 min, 1 µM, pH 1.2): 97%
% of Aspirin Released (μM) ([1]; 60 min, 1 µM, pH 1.2): 100%
% of Aspirin Released (μM) ([1]; 120 min, 1 µM, pH 1.2): 100%
% of Prodrug remaining (μM) ([1]; 0 h, 1 µM, pH 1.2): 91%
% of Prodrug remaining (μM) ([1]; 5 min, 1 µM, pH 1.2): 82%
% of Prodrug remaining (μM) ([1]; 10 min, 1 µM, pH 1.2): 56%
% of Prodrug remaining (μM) ([1]; 0.5 h, 1 µM, pH 1.2): 3%
% of Prodrug remaining (μM) ([1]; 1 h, 1 µM, pH 1.2): 0%
% of Prodrug remaining (μM) ([1]; 2 h, 1 µM, pH 1.2): 0%
Release of aspirin in SIF (in words) [2]: released significant amount of aspirin
Salicylic acid released in human plasma (in words) [3]: large and proportional amount
Inhibition of TXB2 formation [4]: 72.59%
Asp (Aspirin) formed on storage ([5]; 50° C., 0 h): NIL
Prodrug (area %) on storage ([5]; 50° C., 0 h): 99.14%
SA (Salicylic acid) formed on storage ([5]; 50° C., 0 h): NIL
Prodrug (area %) on storage ([5]; 50° C., 1 m): 88.34%
SA (Salicylic acid) formed on storage ([5]; 50° C., 1 m): 0.6%
Asp (Aspirin) formed on storage ([5]; 50° C., 2 d): NIL
Prodrug (area %) on storage ([5]; 50° C., 2 d): 98.84%
SA (Salicylic acid) formed on storage ([5]; 50° C., 2 d): 0.1%
Asp (Aspirin) formed on storage ([5]; 50° C., 5 d): 0.3%
Prodrug (area %) on storage ([5]; 50° C., 5 d): 98.18%
SA (Salicylic acid) formed on storage ([5]; 50° C., 5 d): 0.14%
Degradation of prodrug on storage ([5]; 50° C., after 1 month): about 11%
Degradation of prodrug on storage ([5]; 50° C., after 5 days): ~1%
Asp (Aspirin) formed on storage ([5]; RT, 0 h): NIL
Prodrug (area %) on storage ([5]; RT, 0 h): 99.14%
SA (Salicylic acid) formed on storage ([5]; RT, 0 h): NIL
Asp (Aspirin) formed on storage ([5]; RT, 1 m): 0.13%
Prodrug (area %) on storage ([5]; RT, 1 m): 98.56%
SA (Salicylic acid) formed on storage ([5]; RT, 1 m): NIL
Asp (Aspirin) formed on storage ([5]; RT, 3 d): NIL
Prodrug (area %) on storage ([5]; RT, 3 d): 98.89%
SA (Salicylic acid) formed on storage ([5]; RT, 3 d): NIL
Asp (Aspirin) formed on storage ([5]; RT, 18 d): NIL
Prodrug (area %) on storage ([5]; RT, 18 d): 98.95%
SA (Salicylic acid) formed on storage ([5]; RT, 18 d): NIL
Stability on storage (in words) ([5]; RT, up to 1 month): very stable
Development of gastric ulcers or lesions [6]: none of the animals
